Columns and labels:
Type in all cases: biochemical
Details in all cases: JAK Caliper enzyme assay
[1] = target: TYK2 (Homo sapiens (Human), UniProt P29597); test: JAK Caliper Enzyme Assay at 1 mM ATP, TYK2
Procedure, shortened: (§1)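 Human recombinant kinase domain + fluorescently labelled synthetic peptide, 1 mM ATP, RT; enzyme level/time set for 20–30% phosphorylation. EDTA stop. LabChip separation, peak-height % conversion, % effect vs plate controls.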

[2] = target: JAK1 (Homo sapiens (Human), UniProt P23458); test: JAK Caliper Enzyme Assay at 1 mM ATP, JAK1
Chain of JAK1 (P23458 875-1153): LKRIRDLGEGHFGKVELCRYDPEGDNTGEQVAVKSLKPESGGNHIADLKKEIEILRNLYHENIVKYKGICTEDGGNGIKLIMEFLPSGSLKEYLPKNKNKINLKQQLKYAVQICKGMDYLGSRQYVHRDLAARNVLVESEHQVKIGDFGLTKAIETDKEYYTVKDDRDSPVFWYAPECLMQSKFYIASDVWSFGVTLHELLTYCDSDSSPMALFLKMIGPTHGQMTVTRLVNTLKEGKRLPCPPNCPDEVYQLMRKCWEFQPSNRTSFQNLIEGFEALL
Procedure, shortened: (§2)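 Recombinant human kinase domains phosphorylated a fluorescent synthetic peptide at room temperature, with enzyme level and time tuned to 20% to 30% conversion; EDTA stop buffer ended reactions. Mobility-shift separation gave percent product from peak heights, normalised to DMSO and positive controls, and IC50s came from concentration–effect curves.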

[3] = target: JAK2 (Homo sapiens (Human), UniProt O60674); test: JAK Caliper Enzyme Assay at 1 mM ATP, JAK2
Chain of JAK2 (O60674 849-1124): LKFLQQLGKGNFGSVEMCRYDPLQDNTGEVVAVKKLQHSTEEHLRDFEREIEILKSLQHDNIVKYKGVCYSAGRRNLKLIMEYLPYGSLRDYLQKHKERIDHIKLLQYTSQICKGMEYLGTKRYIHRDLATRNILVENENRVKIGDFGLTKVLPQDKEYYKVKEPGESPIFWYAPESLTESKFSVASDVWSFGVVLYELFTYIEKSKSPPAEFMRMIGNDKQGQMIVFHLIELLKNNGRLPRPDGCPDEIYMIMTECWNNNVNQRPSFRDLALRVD
Procedure, shortened: as §1

[4] = target: JAK3 (Homo sapiens (Human), UniProt P52333); test: JAK Caliper Enzyme Assay at 1 mM ATP, JAK3
Chain of JAK3 (P52333 822-1111): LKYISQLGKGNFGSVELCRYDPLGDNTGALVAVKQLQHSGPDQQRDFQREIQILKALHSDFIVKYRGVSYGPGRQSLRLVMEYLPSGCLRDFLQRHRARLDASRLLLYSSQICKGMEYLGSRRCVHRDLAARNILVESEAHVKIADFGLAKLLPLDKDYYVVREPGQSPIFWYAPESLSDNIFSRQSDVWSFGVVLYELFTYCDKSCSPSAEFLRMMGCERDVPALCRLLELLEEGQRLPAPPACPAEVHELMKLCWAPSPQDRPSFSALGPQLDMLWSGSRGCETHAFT
Procedure, shortened: as §2

Chain of TYK2 (P29597 897-1176): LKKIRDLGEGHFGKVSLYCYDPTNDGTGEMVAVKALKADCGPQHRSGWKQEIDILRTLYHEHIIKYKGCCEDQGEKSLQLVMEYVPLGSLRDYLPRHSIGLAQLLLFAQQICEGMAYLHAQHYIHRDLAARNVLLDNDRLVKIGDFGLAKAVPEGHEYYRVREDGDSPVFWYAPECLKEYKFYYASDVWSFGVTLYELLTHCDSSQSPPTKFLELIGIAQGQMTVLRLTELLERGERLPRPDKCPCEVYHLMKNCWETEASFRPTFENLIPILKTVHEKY

Row | SMILES | IC50 [1] [nM] | IC50 [2] [nM] | IC50 [3] [nM] | IC50 [4] [nM]
1 | CS(=O)(=O)N1CC(CC#N)(n2ncc(-c3cc(-c4c[nH]c(=O)[nH]c4=O)cc4ncccc34)n2)C1 [Example 414, [3-{4-[7-(2,4-dioxo-1,2,3,4-tetrahydropyrimidin-5-yl)quinolin-5-yl]-2H-1,2,3-triazol-2-yl}-1-(methylsulfonyl)azetidin-3-yl]acetonitrile] | 276 | > 10000 | 6170 | > 10000
2 | N#CC[C@]1(n2ncc(-c3cc(-c4cnc5[nH]ccc5n4)cc4ncccc34)n2)C[C@@H](C#N)C1 [Example 416, cis-3-(cyanomethyl)-3-{4-[7-(5H-pyrrolo[2,3-b]pyrazin-2-yl)quinolin-5-yl]-2H-1,2,3-triazol-2-yl}cyclobutanecarbonitrile] | 696 | 3200 | 2300 | > 10000
3 | N#CC[C@]1(n2ncc(-c3cc(-c4cnc5ncccn45)cc4ncccc34)n2)C[C@H](C#N)C1 [Example 418, trans-3-(cyanomethyl)-3-{4-[7-(imidazo[1,2-a]pyrimidin-3-yl)quinolin-5-yl]-2H-1,2,3-triazol-2-yl}cyclobutanecarbonitrile] | 1540 | > 10000 | 8070 | > 10000
4 | N#CC[C@]1(n2ncc(-c3cc(-c4cnn5cccnc45)cc4ncccc34)n2)C[C@H](C#N)C1 [Example 420, trans-3-(cyanomethyl)-3-{4-[7-(pyrazolo[1,5-a]pyrimidin-3-yl)quinolin-5-yl]-2H-1,2,3-triazol-2-yl}cyclobutanecarbonitrile] | 909 | > 10000 | 1700 | > 10000
5 | N#CCC1(n2ncc(-c3cc(-c4cnc5cccnn45)cc4ncccc34)n2)CC(C#N)C1 (stereo not drawn) [Example 421, cis-3-(cyanomethyl)-3-{4-[7-(imidazo[1,2-b]pyridazin-3-yl)quinolin-5-yl]-2H-1,2,3-triazol-2-yl}cyclobutanecarbonitrile] | 113 | 1560 | 353 | > 10000
6 | N#CC[C@]1(n2ncc(-c3cc(-c4cnc5c(N)nccn45)cc4ncccc34)n2)C[C@@H](C#N)C1 [Example 422, cis-3-{4-[7-(8-aminoimidazo[1,2-a]pyrazin-3-yl)quinolin-5-yl]-2H-1,2,3-triazol-2-yl}-3-(cyanomethyl)cyclobutanecarbonitrile] | 292 | 5380 | 1460 | > 10000
7 | CS(=O)(=O)N1CC(CC#N)(n2ncc(-c3cc(-c4cccc(CN)c4)cc4ncccc34)n2)C1 [Example 427, [3-(4-{7-[3-(aminomethyl)phenyl]quinolin-5-yl}-2H-1,2,3-triazol-2-yl)-1-(methylsulfonyl)azetidin-3-yl]acetonitrile] | 709 | > 10000 | 3150 | > 10000
8 | CS(=O)(=O)N1CC(CC#N)(n2ncc(-c3cc(-c4ccc(CN)cc4)cc4ncccc34)n2)C1 [Example 428, [3-(4-{7-[4-(aminomethyl)phenyl]quinolin-5-yl}-2H-1,2,3-triazol-2-yl)-1-(methylsulfonyl)azetidin-3-yl]acetonitrile] | 128 | 9320 | 924 | > 10000
9 | N#CC[C@]1(n2ncc(-c3cc(-c4ccc(C(=O)O)cc4)cc4ncccc34)n2)C[C@H](C#N)C1 [Example 435, 4-(5-{2-[cis-3-cyano-1-(cyanomethyl)cyclobutyl]-2H-1,2,3-triazol-4-yl}quinolin-7-yl)benzoic acid] | 17 | 208 | 179 | > 10000
10 | N#CCC1(n2ncc(-c3cc(-c4ccc(C(=O)O)cc4)cc4ncccc34)n2)CC(C#N)C1 (stereo not drawn) [Example 436, 4-(5-{2-[trans-3-cyano-1-(cyanomethyl)cyclobutyl]-2H-1,2,3-triazol-4-yl}quinolin-7-yl)benzoic acid] | 75 | 1490 | 1130 | > 10000
11 | CS(=O)(=O)N1CC(CC#N)(n2ncc(-c3cc(-c4ccccc4O)cc4ncccc34)n2)C1 [Example 437, [3-{4-[7-(2-hydroxyphenyl)quinolin-5-yl]-2H-1,2,3-triazol-2-yl}-1-(methylsulfonyl)azetidin-3-yl]acetonitrile] | 1210 | > 10000 | > 10000 | > 10000

Next, values leading:

Row | IC50 [1] [nM] | IC50 [2] [nM] | IC50 [3] [nM] | IC50 [4] [nM] | SMILES
12 | 90 | 4020 | 682 | > 10000 | CCn1cc(-c2cc(-c3cnn(C4(CC#N)CN(S(C)(=O)=O)C4)n3)c3cccnc3c2)ccc1=O [Example 413, [3-{4-[7-(1-ethyl-6-oxo-1,6-dihydropyridin-3-yl)quinolin-5-yl]-2H-1,2,3-triazol-2-yl}-1-(methylsulfonyl)azetidin-3-yl]acetonitrile]
13 | 110 | 7470 | 291 | > 10000 | N#CC[C@]1(n2ncc(-c3cc(-c4cnc5ncccn45)cc4ncccc34)n2)C[C@@H](C#N)C1 [Example 417, cis-3-(cyanomethyl)-3-{4-[7-(imidazo[1,2-a]pyrimidin-3-yl)quinolin-5-yl]-2H-1,2,3-triazol-2-yl}cyclobutanecarbonitrile]
14 | 105 | 739 | 200 | > 10000 | N#CC[C@]1(n2ncc(-c3cc(-c4cnn5cccnc45)cc4ncccc34)n2)C[C@@H](C#N)C1 [Example 419, cis-3-(cyanomethyl)-3-{4-[7-(pyrazolo[1,5-a]pyrimidin-3-yl)quinolin-5-yl]-2H-1,2,3-triazol-2-yl}cyclobutanecarbonitrile]
15 | 76 | 2250 | 183 | > 10000 | N#CC[C@]1(n2ncc(-c3cc(-c4cn5ccnc5c(N)n4)cc4ncccc34)n2)C[C@@H](C#N)C1 [Example 423, cis-3-{4-[7-(8-aminoimidazo[1,2-a]pyrazin-6-yl)quinolin-5-yl]-2H-1,2,3-triazol-2-yl}-3-(cyanomethyl)cyclobutanecarbonitrile]
16 | 23 | 728 | 82 | 9360 | Cc1nc2ccc(-c3cc(-c4cnn([C@]5(CC#N)C[C@H](C#N)C5)n4)c4cccnc4c3)nc2[nH]1 [Example 424, cis-3-(cyanomethyl)-3-{4-[7-(2-methyl-3H-imidazo[4,5-b]pyridin-5-yl)quinolin-5-yl]-2H-1,2,3-triazol-2-yl}cyclobutanecarbonitrile]
17 | 12 | 608 | 29 | > 10000 | CN1C(=O)COc2ccc(-c3cc(-c4cnn([C@]5(CC#N)C[C@H](C#N)C5)n4)c4cccnc4c3)nc21 [Example 425, cis-3-(cyanomethyl)-3-{4-[7-(4-methyl-3-oxo-3,4-dihydro-2H-pyrido[3,2-b][1,4]oxazin-6-yl)quinolin-5-yl]-2H-1,2,3-triazol-2-yl}cyclobutanecarbonitrile]
18 | 24 | 1000 | 50 | > 10000 | CN1C(=O)COc2ccc(-c3cc(-c4cnn([C@]5(CC#N)C[C@@H](C#N)C5)n4)c4cccnc4c3)nc21 [Example 426, trans-3-(cyanomethyl)-3-{4-[7-(4-methyl-3-oxo-3,4-dihydro-2H-pyrido[3,2-b][1,4]oxazin-6-yl)quinolin-5-yl]-2H-1,2,3-triazol-2-yl}cyclobutanecarbonitrile]
19 | 112 | 4000 | 1120 | > 10000 | CS(=O)(=O)N1CC(CC#N)(n2ncc(-c3cc(-c4cccc(CO)c4)cc4ncccc34)n2)C1 [Example 429, [3-(4-{7-[3-(hydroxymethyl)phenyl]quinolin-5-yl}-2H-1,2,3-triazol-2-yl)-1-(methylsulfonyl)azetidin-3-yl]acetonitrile]
20 | 93 | 3140 | 909 | > 10000 | CS(=O)(=O)N1CC(CC#N)(n2ncc(-c3cc(-c4cccc(C(N)=O)c4)cc4ncccc34)n2)C1 [Example 430, 3-(5-{2-[3-(cyanomethyl)-1-(methylsulfonyl)azetidin-3-yl]-2H-1,2,3-triazol-4-yl}quinolin-7-yl)benzamide]
21 | 20 | 352 | 116 | 6700 | N#CC[C@]1(n2ncc(-c3cc(-c4ccc(C(N)=O)cc4)cc4ncccc34)n2)C[C@H](C#N)C1 [Example 433, 4-(5-{2-[cis-3-cyano-1-(cyanomethyl)cyclobutyl]-2H-1,2,3-triazol-4-yl}quinolin-7-yl)benzamide]
22 | 99 | 2520 | 748 | > 10000 | N#CCC1(n2ncc(-c3cc(-c4ccc(C(N)=O)cc4)cc4ncccc34)n2)CC(C#N)C1 (stereo not drawn) [Example 434, 4-(5-{2-[trans-3-cyano-1-(cyanomethyl)cyclobutyl]-2H-1,2,3-triazol-4-yl}quinolin-7-yl)benzamide]
23 | 107 | 5630 | 1960 | > 10000 | CS(=O)(=O)N1CC(CC#N)(n2ncc(-c3cc(-c4cccc(O)c4)cc4ncccc34)n2)C1 [Example 438, [3-{4-[7-(3-hydroxyphenyl)quinolin-5-yl]-2H-1,2,3-triazol-2-yl}-1-(methylsulfonyl)azetidin-3-yl]acetonitrile]
24 | 30 | 1210 | 609 | > 10000 | CS(=O)(=O)N1CC(CC#N)(n2ncc(-c3cc(-c4ccc(O)cc4)cc4ncccc34)n2)C1 [Example 439, [3-{4-[7-(4-hydroxyphenyl)quinolin-5-yl]-2H-1,2,3-triazol-2-yl}-1-(methylsulfonyl)azetidin-3-yl]acetonitrile]

— patent publication US11254668B2, “Pyrazolo[1,5-A]pyrazin-4-yl and related derivatives” (Pfizer Inc., priority 2017, dated 2022)
